Assay [1] has as its target GDP-bound KRAS protein (aa 1-169), containing both G12C and C118A amino acid substitutions (Homo sapiens (Human), UniProt P01116, C118A/G12C). The experiment in a line: Coupled Nucleotide Exchange Assay. In kind it is biochemical. As for the experimental part:
For compounds in Table 9, the following assay conditions were employed:
Coupled Nucleotide Exchange Assay:
The assay plates were then read on a PerkinElmer EnVision Multilabel Reader, using AlphaScreen® technology, and data were analyzed using a 4-parameter logistic model to calculate IC50 values.

Assay [2] has as its system Phosphorylation of ERK1/2 in MIA PaCa-2 cells. The experiment in a line: Phospho-ERK1/2 MSD Assay. It is filed as cell-based. Conditions: Homo sapiens, MiaPaCa-2 cells.
For assay [3], the system named is Phosphorylation of ERK1/2 in A549 cells. The experiment in a line: Phospho-ERK1/2 MSD Assay (A549). Conditions: Homo sapiens. It is filed as cell-based.
[4] abbreviates: read-out: Coupled Exchange IC50 (5 min), 5 min compound pre-incubation.
The mark [5] stands for this setting: read-out: Coupled Exchange IC50 (2 h), 2 h compound pre-incubation.
[6] abbreviates: read-out: Coupled Exchange IC50 (20 h), 20 h compound pre-incubation.
Where [7] appears, read: MIA PaCa-2, 4 h, read-out: pERK IC50 (4 h, MiaPaCa-2), 4 h compound treatment.
[8] abbreviates: A549, 4 h, read-out: pERK IC50 (4 h, A549), 4 h compound treatment.
Where [9] appears, read: MIA PaCa-2, read-out: pERK IC50 (4 h), 4 h compound treatment.
[10] abbreviates: read-out: pERK IC50 (4 h), 4 h compound treatment.

Read-outs that look alike come from different tables or passages of the source.

GDP-bound KRAS protein (aa 1-169), containing both G12C and C118A amino acid substitutions, sequence (P01116 other isoform, or with tags, fused parts or gaps G12C/C118A): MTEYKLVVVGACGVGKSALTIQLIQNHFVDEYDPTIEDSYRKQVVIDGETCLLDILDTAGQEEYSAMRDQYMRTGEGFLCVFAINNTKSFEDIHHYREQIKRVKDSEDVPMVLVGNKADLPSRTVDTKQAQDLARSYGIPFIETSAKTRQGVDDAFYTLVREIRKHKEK

As a reminder, the IC50 is the concentration that gives 50% inhibition. On to `C=CC(=O)N1CC(NC(=O)Cn2c(C3CC3)c(C(=O)N3CCc4c(ccnc4OC)C3)c3cc(Cl)cc(C)c32)C1` [Example 1-4, 2-(5-Chloro-2-cyclopropyl-3-((5-methoxy-3,4-dihydro-2,6-naphthyridin-2(1H)-yl)carbonyl)-7-methyl-1H-indol-1-yl)-N-(1-(2-propenoyl)-3-azetidinyl)acetamide], for which the IC50 was 0.27 µM in assay [1] (setting [4]); 0.08 µM in assay [1] (setting [5]); 0.01 µM in assay [1] (setting [6]); 0.15 µM in assay [2] (setting [7]); greater than 100 µM in assay [3] (setting [8]).

For `C=CC(=O)N1CC(NC(=O)Cn2cc(-c3c(C)ccc4cn[nH]c34)c3cc(Br)ccc32)C1` [Example 130], the half-maximal inhibitory concentration (IC50) in assay [1] (setting [5]) is 4.49 µM; in assay [1] (setting [6]), 1.02 µM; in assay [2] (setting [9]), 37 µM; in assay [3] (setting [10]) it was 50.1 µM.

`C=CC(=O)N1CC(NC(=O)Cn2c(C)c(C(=O)N3CCc4c(cccc4OC)C3)c3cc(Br)ccc32)C1` [Example 13]: the half-inhibitory concentration (IC50) is 0.3 µM in assay [1] (setting [5]), 0.11 µM in assay [1] (setting [6]), 1.68 µM in assay [2] (setting [7]) and greater than 100 µM in assay [3] (setting [8]).

Take `C=CC(=O)N1CC(NC(=O)Cn2cc(-c3c(C)ccc4[nH]ncc34)c3cc(Cl)ccc32)C1` [Example 142]: the concentration for half-maximal inhibition (IC50) is 3.71 µM in assay [1] (setting [5]), 0.83 µM in assay [1] (setting [6]), 44.1 µM in assay [2] (setting [9]) and greater than 100 µM in assay [3] (setting [10]).

For the compound `C=CC(=O)N1CC(NC(=O)Cn2cc(CN3CCc4ccccc4C3)c3cc(Br)ccc32)C1` [Example 145], the IC50 was determined as 5.7 µM in assay [1] (setting [5]), 1.12 µM in assay [1] (setting [6]), 46.9 µM in assay [2] (setting [9]) and 50.9 µM in assay [3] (setting [10]).

For `C=CC(=O)N1CC(N(C)C(=O)Cn2c(CC3CC3)c(C(=O)N3CCc4c(cccc4OC)C3)c3cc(Cl)cc(C)c32)C1` [Example 4-4, 2-(5-Chloro-2-(cyclopropylmethyl)-3-((5-methoxy-3,4-dihydro-2(1H)-isoquinolinyl)carbonyl)-7-methyl-1H-indol-1-yl)-N-methyl-N-(1-(2-propenoyl)-3-azetidinyl)acetamide], the 50% inhibitory concentration (IC50) in assay [1] (setting [5]) turned out to be 0.1 µM; in assay [2] (setting [7]), 0.18 µM; in assay [3] (setting [8]), 29.3 µM.

Consider `C=CC(=O)N1CC(N(C)C(=O)Cn2c(C)c(C(=O)N3CCN(c4ccc(Br)cn4)CC3)c3cc(Br)ccc32)C1` [Example 21], for which the IC50 in assay [1] (setting [5]) is 0.49 µM; in assay [1] (setting [6]), 0.1 µM; in assay [2] (setting [7]) it was 1.95 µM; in assay [3] (setting [8]) it was 27.3 µM.

For `C=CC(=O)N1CC(NC(=O)Cn2cc(I)c3cc([N+](=O)[O-])ccc32)C1` [Example 128], the IC50 was greater than 250 µM in assay [1] (setting [4]); 7.24 µM in assay [1] (setting [5]); 1.18 µM in assay [1] (setting [6]); 35.6 µM in assay [2] (setting [9]); greater than 100 µM in assay [3] (setting [10]).

For the compound `C=CC(=O)N1CC(NC(=O)Cn2c(C)c(C(=O)N3CCc4c(cccc4OC)C3)c3cc(C)cc(C)c32)C1` [Example 6], the values for the 50% inhibitory concentration (IC50) in assay [1] (setting [5]), in assay [2] (setting [7]) and in assay [3] (setting [8]) were 0.34 µM, 1.12 µM and greater than 100 µM, respectively.

`C=CC(=O)N1CC(N(C)C(=O)Cn2c(CC)c(C(=O)N3CCc4c(ccnc4OC)C3)c3cc(Cl)cc(C)c32)C1` [Example 4-1, 2-(5-Chloro-2-ethyl-3-((5-methoxy-3,4-dihydro-2,6-naphthyridin-2(1H)-yl)carbonyl)-7-methyl-1H-indol-1-yl)-N-methyl-N-(1-(2-propenoyl)-3-azetidinyl)acetamide]: the IC50 in assay [1] (setting [5]) is 0.12 µM; in assay [2] (setting [7]) it was 0.13 µM; in assay [3] (setting [8]), greater than 100 µM.

Take `C=CC(=O)N1CC(NC(=O)Cn2cc(I)c3cc(Br)cc(C)c32)C1` [Example 153]: the 50% inhibitory concentration (IC50) in assay [1] (setting [5]) is 1.58 µM; in assay [1] (setting [6]) it was 0.26 µM; in assay [2] (setting [9]), 51.8 µM; in assay [3] (setting [10]), greater than 100 µM.

Turning to `C=CC(=O)N1CC(NC(=O)Cn2cc(C3CC3)c3cc(Br)ccc32)C1` [Example 132], the 50% inhibitory concentration (IC50) in assay [1] (setting [5]) is 9.52 µM; in assay [1] (setting [6]), 1.71 µM; in assay [2] (setting [9]), 37.9 µM; in assay [3] (setting [10]), greater than 100 µM.

`C=CC(=O)N1CC(NC(=O)Cn2cc(C(=O)N3CCc4c(ccnc4OC)C3)c3c(Cl)c(Cl)ccc32)C1` [Example 15]: the IC50 in assay [1] (setting [5]) was 0.22 µM; in assay [2] (setting [7]), 1.79 µM; in assay [3] (setting [8]), greater than 100 µM.

Consider `C=CC(=O)N1CC(NC(=O)Cn2cc(I)c3cc(Br)c(C)cc32)C1` [Example 95], for which the IC50 was 5.79 µM in assay [1] (setting [5]), 1.09 µM in assay [1] (setting [6]), 16.7 µM in assay [2] (setting [9]) and greater than 100 µM in assay [3] (setting [10]).

`C=CC(=O)N1CC(NC(=O)Cn2cc(-c3ccccc3C(C)C)c3cc(Br)cc(C)c32)C1` [Example 119]: the half-maximal inhibitory concentration (IC50) in assay [1] (setting [5]) was 1.71 µM; in assay [1] (setting [6]) it was 0.39 µM; in assay [2] (setting [9]) it was 30.6 µM; in assay [3] (setting [10]), greater than 100 µM.

In the case of `C=CC(=O)N1CC(NC(=O)Cn2c(C)c(C(=O)N3CCc4c(O)cccc4C3)c3cc(Br)ccc32)C1` [Example 58], the IC50 is 0.28 µM in assay [1] (setting [5]), 0.11 µM in assay [1] (setting [6]), 6.81 µM in assay [2] (setting [7]) and greater than 33.3 µM in assay [3] (setting [8]).

`C=CC(=O)N1CC(N(C)C(=O)Cn2cc(I)c3cc(I)ccc32)C1` [Example 66]: the IC50 in assay [1] (setting [4]) was 19.5 µM; in assay [1] (setting [5]), 2.41 µM; in assay [1] (setting [6]), 0.1 µM; in assay [2] (setting [9]), 8.48 µM; in assay [3] (setting [10]), greater than 33.3 µM.

Turning to `C=CC(=O)N1CC(NC(=O)Cn2c(C)c(-c3cncnc3C(C)C)c3cc(Cl)ccc32)C1` [Example 5-2, 2-(5-Chloro-2-methyl-3-(4-(2-propanyl)-5-pyrimidinyl)-1H-indol-1-yl)-N-(1-(2-propenoyl)-3-azetidinyl)acetamide], the IC50 is 1.05 µM in assay [1] (setting [5]), 1.49 µM in assay [2] (setting [9]) and greater than 100 µM in assay [3] (setting [10]).

On to `C=CC(=O)N1CC(NC(=O)Cn2cc(C(=O)NCCc3nc(C)c(C)s3)c3cc(Br)ccc32)C1` [Example 176], for which the concentration for half-maximal inhibition (IC50) in assay [1] (setting [5]) is 2.8 µM; in assay [1] (setting [6]), 0.6 µM; in assay [2] (setting [7]), greater than 100 µM; in assay [3] (setting [8]) it was greater than 100 µM.

On to `C=CC(=O)N1CC(NC(=O)Cn2c(C(=O)NCc3ccccc3)cc3cc(Br)ccc32)C1` [Example 164], for which the half-maximal inhibitory concentration (IC50) is 10.7 µM in assay [1] (setting [5]), 1.11 µM in assay [1] (setting [6]), greater than 100 µM in assay [2] (setting [9]) and greater than 100 µM in assay [3] (setting [10]).

Take `C=CC(=O)N1CC(NC(=O)Cn2c(C)c(-c3ccccc3Cc3ccccc3)c3cc(Cl)ccc32)C1` [Example 56]: the IC50 in assay [1] (setting [4]) was 4.77 µM; in assay [1] (setting [5]), 0.88 µM; in assay [2] (setting [9]) it was 6.17 µM; in assay [3] (setting [10]), greater than 100 µM.

Take `C=CC(=O)N1CC(NC(=O)Cn2c(C)c(C(=O)N3CCc4ccccc4[C@@H]3C)c3cc(Br)cc(C)c32)C1` [Example 2-2-2, 2-(5-Bromo-2,7-dimethyl-3-(((1S)-1-methyl-3,4-dihydro-2(1H)-isoquinolinyl)carbonyl)-1H-indol-1-yl)-N-(1-(2-propenoyl)-3-azetidinyl)acetamide]: the values for the IC50 in assay [1] (setting [5]), in assay [2] (setting [7]) and in assay [3] (setting [8]) were 0.42 µM, 3.01 µM and 61 µM, respectively.

As to `C=CC(=O)N1CC(NC(=O)Cn2cc(C3CC3)c3ccc(-c4ccccc4Cl)cc32)C1` [Example 146], the half-inhibitory concentration (IC50) was found to be 3.8 µM in assay [1] (setting [5]), 0.74 µM in assay [1] (setting [6]), 47.1 µM in assay [2] (setting [9]) and 74.2 µM in assay [3] (setting [10]).

`C=CC(=O)N1CC(NC(=O)Cn2cc(C(=O)NCCC(=O)Nc3cccc4ccccc34)c3cc(Br)ccc32)C1` [Example 170]: the half-maximal inhibitory concentration (IC50) in assay [1] (setting [5]) is 3 µM; in assay [1] (setting [6]), 0.65 µM; in assay [2] (setting [7]), greater than 100 µM; in assay [3] (setting [8]), greater than 100 µM.

Regarding `C=CC(=O)N1CC(NC(=O)Cn2cc(-c3cccnc3OC(C)C)c3cc(Br)ccc32)C1` [Example 105], the concentration for half-maximal inhibition (IC50) in assay [1] (setting [5]) was found to be 6.45 µM; in assay [2] (setting [9]), 22 µM; in assay [3] (setting [10]), 11.3 µM.

On to `C=CC(=O)N1CC(NC(=O)Cn2cc(CNCc3ccccc3)c3cc(Br)ccc32)C1` [Example 136], for which the IC50 came out at 9.85 µM in assay [1] (setting [5]), 1.91 µM in assay [1] (setting [6]), 39.6 µM in assay [2] (setting [9]) and 36.6 µM in assay [3] (setting [10]).

Consider `C=CC(=O)N1CC(NC(=O)Cn2c(C)c(-c3ccccc3CN(C)C)c3cc(Cl)ccc32)C1` [Example 32], for which the IC50 in assay [1] (setting [4]) is 202 µM; in assay [1] (setting [5]), 6.05 µM; in assay [2] (setting [9]), 2.73 µM; in assay [3] (setting [10]), greater than 100 µM.

`C=CC(=O)N1CC(NC(=O)Cn2c3ccc(Br)cc3c3ccc(Oc4cccnc4)nc32)C1` [Example 55]: the IC50 in assay [1] (setting [5]) is 0.95 µM; in assay [1] (setting [6]), 0.23 µM; in assay [2] (setting [9]), 5.93 µM; in assay [3] (setting [10]) it was greater than 100 µM.

Consider `C=CC(=O)N1CC(N(C)C(=O)Cn2c(C)c(C(=O)N3CCc4c(cccc4OC)C3)c3cc(Br)cc(C)c32)C1` [Example 4-5, 2-(5-Bromo-3-((5-methoxy-3,4-dihydro-2(1H)-isoquinolinyl)carbonyl)-2,7-dimethyl-1H-indol-1-yl)-N-methyl-N-(1-(2-propenoyl)-3-azetidinyl)acetamide], for which the IC50 in assay [1] (setting [5]) was 0.09 µM; in assay [2] (setting [7]), 0.27 µM; in assay [3] (setting [8]), greater than 100 µM.

`C=CC(=O)N1CC(NC(=O)Cn2c3c(c4cc(Br)ccc42)CCCC3)C1` [Example 160]: the IC50 in assay [1] (setting [5]) was 4.95 µM; in assay [1] (setting [6]) it was 1.07 µM; in assay [2] (setting [9]) it was 58.3 µM; in assay [3] (setting [10]) it was greater than 100 µM.

Take `C=CC(=O)N1CC(N(C)C(=O)Cn2c(C)c(C(=O)N3CCN(c4ccc(C#N)cn4)C[C@H]3C)c3cc(Br)ccc32)C1` [Example 8]: the IC50 was 0.22 µM in assay [1] (setting [5]), 1.56 µM in assay [2] (setting [7]) and greater than 100 µM in assay [3] (setting [8]).

The record behind these values is patent US11053226B2, “KRAS G12C inhibitors and methods of using the same” (Amgen Inc., priority 2018, dated 2021).
